Test results from patent US9872917B2, “Anion-paired cationic metallocene-containing compounds and polymers as antimicrobial agents” (University of South Carolina, priority 2013, dated 2018).

Test system: CA-MRSA cells
Assay: Broth dilution method, growth followed at OD600
Assay type: cell-based, Staphylococcus aureus
Conditions: stock solutions 20 μg/ml penicillin G, 20 μg/ml polymer, 40 μg/ml loaded polymer; 37° C., OD600 every 2 hours
Protocol: Broth dilution method was used to characterize the inhibition of penicillin G/polymer complex against CA-MRSA cells. Penicillin G, cationic cobaltocenium polymer or penicillin G/polymer complex was dissolved in water. Concentrations of the above solutions were at 20 μg/ml for penicillin G, 20 μg/ml for cationic polymer and 40 μg/ml penicillin G loaded polymer (20 μg/ml penicillin G and 20 μg/ml polymer). Solutions without polymers were prepared as the control samples. CA-MRSA cells were grown in tryptic soy broth (TSB) medium at 37° C. overnight. All bacteria were grown to an optical density of 1 (OD600=1). Then, the cells were diluted with TSB to give a bacterial assay stock with OD600=0.04. CA-MRSA cells ([…]) were added to each well in a 96 well assay plate.

Structure (SMILES): CC1(C)S[C@@H]2[C@H](NC(=O)Cc3ccccc3)C(=O)N2[C@H]1C(=O)O [penicillin G, benzyl penicillin]
- inhibition of CA-MRSA growth (OD600): some inhibition
